Laboratory results published in patent US6723332B2 (dated 2004).

Row | SMILES | melting point
1 | Cc1cc(=O)n2c(C(=O)Nc3cc(F)ccc3F)c[nH]c2c1 | > 285 °C (dec.)
2 | CN(C)CCOc1ccc(NC(=O)C2C=Nc3cccc(=O)n32)cc1 (stereo not drawn) | 198 to 210 °C
3 | O=C(Nc1cccc(C(F)(F)F)c1F)C1C=Nc2cccc(=O)n21 (stereo not drawn) | 274 to 277 °C (dec.)
4 | Cc1ccc(F)c(NC(=O)C2C=Nc3cccc(=O)n32)c1 (stereo not drawn) | 280 to 285 °C (dec.)
5 | O=C(Nc1ccc(OC(F)(F)F)cc1)C1C=Nc2cccc(=O)n21 (stereo not drawn) | 273 to 275 °C
6 | CCOc1ccc(NC(=O)C2C=Nc3cccc(=O)n32)c(F)c1 (stereo not drawn) | > 216 °C (dec.)
